Broadly, the IC50 is the concentration needed to halve the response being measured. Low values mean greater potency, high ones weaker potency.

Four compounds from ChEMBL document CHEMBL1137553, “An expeditious synthesis of tamoxifen, a representative SERM (selective estrogen receptor modulator), via the three-component coupling reaction among aromatic aldehyde, cinnamyltrimethylsilane, and beta-chlorophenetole” (Bioorg Med Chem, 2007) can be followed below.

≈ marks a conversion by molar mass, not a printed value.

Test [1] deals with HL-60. Kind of test: Antiproliferative activity against human HL60 cells assessed as cell viability at 5 ug/ml after 4 hrs by MTT assay. The test is classed as functional. The following applies: HL-60, 4 h, read-out: Activity.
Test [2] relates to HL-60. Kind of test: Antiproliferative activity against human HL60 cells assessed as cell viability at 1 ug/ml after 4 hrs by MTT assay. The format is functional. To be noted: HL-60, 4 h, read-out: Activity. (In general: Tetrazolium assays rely on reduction of a dye to a coloured formazan, in cell work by metabolically active cells.)
The subject of test [3] is HL-60. As to the kind of experiment: Antiproliferative activity against human HL60 cells assessed as cell viability at 20 ug/ml after 4 hrs by MTT assay. The format is functional. The following applies: HL-60, 4 h, read-out: Activity.
In test [4] the test system is HL-60. As to the kind of experiment: Growth inhibition of human HL60 cells after 4 hrs by MTT assay. To be noted: HL-60, 4 h. The test is classed as functional, cell-based.
Test [5] relates to HL-60. Kind of test: Antiproliferative activity against human HL60 cells assessed as cell viability after 4 hrs by MTT assay. The format is functional.
Test [6] relates to HL-60. As to the kind of experiment: Antiproliferative activity against human HL60 cells assessed as cell viability at 10 ug/ml after 4 hrs by MTT assay. The format is functional. To be noted: HL-60, 4 h, read-out: Activity.

Turning to `CC/C(=C(/c1ccc(Br)cc1)c1ccc(OCCN(C)C)cc1)c1ccccc1`, in the test with HL-60 [1], the viability at 5 µg/mL is 59.2%. In addition, the viability at 1 µg/mL in the test with HL-60 [2] is 99.9%. For the same compound, in the test with HL-60 [3], the viability at 20 µg/mL came to 7.01%. The IC50 with HL-60 [4] turned out to be 6 µg/mL (≈ 13.3 µM). The Activity with HL-60 [5] is given as 100%. Further, in the test on HL-60 [6], the viability at 10 µg/mL was 13.2%.

As to `CC/C(=C(\c1ccc(I)cc1)c1ccc(OCCN2CCCC2)cc1)c1ccccc1` [IDOXIFENE], the viability at 5 µg/mL in the test on HL-60 [1] turned out to be 82.7%. For the same compound, the viability at 1 µg/mL in the test on HL-60 [2] was 106%. Also, the viability at 20 µg/mL with HL-60 [3] is 8.72%. Besides, in the test on HL-60 [4], 7.7 µg/mL (≈ 14.7 µM) corresponded to half-maximal inhibition (IC50). In the test on HL-60 [5], the Activity amounted to 100%. In the test on HL-60 [6], the viability at 10 µg/mL came to 25.5%.

For `CC/C(=C(/c1ccc(OCCN(C)C)cc1)c1cccc(I)c1)c1ccccc1`, the viability at 5 µg/mL in the test with HL-60 [1] is 104%. Besides, the viability at 1 µg/mL in the test with HL-60 [2] is 109%. Further, the viability at 20 µg/mL in the test with HL-60 [3] stood at 36%. In the test with HL-60 [4], this compound registered an IC50 of 19 µg/mL (≈ 38.2 µM). In the test with HL-60 [5], the Activity was 100%. Besides, the viability at 10 µg/mL in the test with HL-60 [6] was 97.2%.

For the compound `CC/C(=C(\c1ccccc1)c1ccc(OCCN(C)C)cc1)c1ccccc1` [TAMOXIFEN], the viability at 5 µg/mL in the test with HL-60 [1] stood at 53.5%. The viability at 1 µg/mL in the test with HL-60 [2] was 96.2%. Besides, the viability at 20 µg/mL in the test on HL-60 [3] is 5.45%. The same compound had an IC50 in the test with HL-60 [4] of 5.9 µg/mL (≈ 15.9 µM). Besides, the Activity in the test with HL-60 [5] worked out at 100%. In addition, in the test on HL-60 [6], the viability at 10 µg/mL worked out at 15.9%.
